From patent publication US9968098B2, “Synergistic Bacillus thuringiensis subsp. aizawai, Bacillus thuringiensis subsp. kurstaki and cyantraniliprole mixtures for diamondback moth, beet armyworm, southwestern corn borer, and corn earworm” (Valent BioSciences LLC, priority 2016, dated 2018)
Where two headings read alike, the source gives them in different places.

Tests used:
diamondback moth larvae = assay: Leaf dip test, diamondback moth larvae; format: in vivo; details: Plutella xylostella, foliar, Bta/Btk 0.8125 ppm, cyantraniliprole 0.12 ppm, mixture 0.8125 ppm + 0.12 ppm (Ratio 1:0.12), read-out: % Efficacy
Excerpt: The following examples were used to determine the synergy of Bacillus thuringiensis subsp. aizawai, Bacillus thuringiensis subsp. kurstaki and cyantraniliprole when controlling diamondback moth, beet armyworm, sugarcane borer, soybean looper, corn earworm, cabbage looper, and southwestern corn borer. Sympatico™ emulsifiable suspension (available from Valent BioSciences LLC) was used as the source of Bacillus thuringiensis subsp. aizawai and Bacillus thuringiensis kurstaki. Sympatico™ contains about a 1:0.67 ratio of Bacillus thuringiensis subsp. kurstaki fermentation solids, spores and toxins to Bacillus thuringiensis subsp. aizawai fermentation solids, spores and toxins. Belt® was used as the source of cyantraniliprole. The present invention is not limited to the commercial products used in the examples. […]
For these tests, standardized laboratory leaf dip methods were used to inoculate plant material with treatment(s). […] Synergy ratings were calculated for each test. […]
In order to determine synergy, rates below normal field rate ranges must be used. If normal field rate ranges are used, all of the larvae would die (combining a lethal or near lethal dose of Bacillus thuringiensis subsp. aizawai and Bacillus thuringiensis subsp. kurstaki with a lethal dose of cyantraniliprole would most likely lead to larvae death) in every treatment and synergy would not be able to be determined. […]

beet armyworm larvae = assay: Leaf dip test, beet armyworm larvae; format: in vivo; details: Spodoptera exigua, foliar, Bta/Btk 0.8125 ppm, cyantraniliprole 1.0 ppm, mixture 0.8125 ppm + 1.0 ppm (Ratio 1:1.23), read-out: % Efficacy
Procedure: (§1) Sympatico™ emulsifiable suspension (available from Valent BioSciences LLC) was used as the source of Bacillus thuringiensis subsp. aizawai and Bacillus thuringiensis kurstaki. Sympatico™ contains about a 1:0.67 ratio of Bacillus thuringiensis subsp. kurstaki fermentation solids, spores and toxins to Bacillus thuringiensis subsp. aizawai fermentation solids, spores and toxins. Belt® was used as the source of cyantraniliprole. […] In each example below, the studies were conducted as follows.
(§2) For these tests, standardized laboratory leaf dip methods were used to inoculate plant material with treatment(s). Dry, treated leaves were placed into Petri dishes (100×25 mm) containing filter paper wetted with 500 μl of distilled H2O (“dH2O”). Each dish was then infested with between 5 and 10 larvae, dependent on species. Efficacy ratings were taken at specified intervals. Synergy ratings were calculated for each test.
(§3) % Cexp=A+B−(AB/100), where % Cexp is the expected efficacy and “in which A and B are the control levels given by the single [insecticides].
Bacillus thuringiensis subsp. aizawai/Bacillus thuringiensis subsp. kurstaki was applied at a concentration of 0.8125 ppm (0.8125 μg/ml). Cyantraniliprole was applied at a concentration of 1.0 ppm (1.0 μg/ml). […]

cabbage looper larvae = assay: Leaf dip test, cabbage looper larvae; format: in vivo; details: Trichoplusia ni, foliar, Bta/Btk 0.8125 ppm, cyantraniliprole 0.50 ppm, mixture 0.8125 ppm + 0.50 ppm (Ratio 1:0.62), read-out: % Efficacy
Procedure: as §1, §2, §3
In this study, the response of cabbage looper larvae to amounts of Bacillus thuringiensis subsp. aizawai, Bacillus thuringiensis subsp. kurstaki and cyantraniliprole was observed.
Bacillus thuringiensis subsp. aizawai/Bacillus thuringiensis subsp. kurstaki was applied at a concentration of 0.8125 ppm (0.8125 μg/ml). […]

sugarcane borer larvae = assay: Leaf dip test, sugarcane borer larvae; format: in vivo; details: Diatraea saccharalis, foliar, Bta/Btk 0.8125 ppm, cyantraniliprole 1.0 ppm, mixture 0.8125 ppm + 1.0 ppm (Ratio 1:1.23), read-out: % Efficacy
Excerpt: (§4) The following examples were used to determine the synergy of Bacillus thuringiensis subsp. aizawai, Bacillus thuringiensis subsp. kurstaki and cyantraniliprole when controlling diamondback moth, beet armyworm, sugarcane borer, soybean looper, corn earworm, cabbage looper, and southwestern corn borer. Sympatico™ emulsifiable suspension (available from Valent BioSciences LLC) was used as the source of Bacillus thuringiensis subsp. aizawai and Bacillus thuringiensis kurstaki. Sympatico™ contains about a 1:0.67 ratio of Bacillus thuringiensis subsp. kurstaki fermentation solids, spores and toxins to Bacillus thuringiensis subsp. aizawai fermentation solids, spores and toxins. Belt® was used as the source of cyantraniliprole. […] In each example below, the studies were conducted as follows.
as §2
(§5) % Cexp=A+B−(AB/100), where % Cexp is the expected efficacy and “in which A and B are the control levels given by the single [insecticides]. […]

[1] = test system: southwestern corn borer larvae; assay: Leaf dip test, southwestern corn borer larvae; format: in vivo, Diatraea grandiosella; details: foliar, Bta/Btk 0.8125 ppm, cyantraniliprole 0.1 ppm, mixture 0.8125 ppm + 0.1 ppm (Ratio 1:0.12), read-out: % Efficacy
Excerpt: as §4, §2, §5

soybean looper larvae = assay: Leaf dip test, soybean looper larvae; format: in vivo, Chrysodeixis includens; details: foliar, Bta/Btk 0.26 ppm, cyantraniliprole 1.0 ppm, mixture 0.26 ppm + 1.0 ppm (Ratio 1:15), read-out: % Efficacy
Procedure: Belt® was used as the source of cyantraniliprole. […] In each example below, the studies were conducted as follows.
as §2, §3
In this study, the response of soybean looper larvae to Bacillus thuringiensis subsp. aizawai, Bacillus thuringiensis subsp. kurstaki and cyantraniliprole was observed.
Bacillus thuringiensis subsp. aizawai/Bacillus thuringiensis subsp. kurstaki was applied at a concentration of 0.26 ppm (0.26 μg/ml). Cyantraniliprole was applied at a concentration of 1.0 ppm (1.0 μg/ml). The Bacillus thuringiensis subsp. aizawai/Bacillus thuringiensis kurstaki/cyantraniliprole mixture was applied at a concentration of 0.26 ppm Bacillus thuringiensis subsp. aizawai/Bacillus thuringiensis subsp. kurstaki and 1.0 ppm cyantraniliprole.

corn earworm larvae = assay: Leaf dip test, corn earworm larvae; format: in vivo; details: Helicoverpa zea, foliar, Bta/Btk 2.6 ppm, cyantraniliprole 10.0 ppm, mixture 2.6 ppm + 10.0 ppm (Ratio 1:3.85), read-out: % Efficacy
Procedure: In each example below, the studies were conducted as follows.
as §2
% Cexp=A+B−(AB/100), where % Cexp is the expected efficacy and “in which A and B are the control levels given by the single [insecticides]. […] Adopting a conservative approach, Applicant will determine if synergy is present at ratios of ≥1.15.
In this study, the response of corn earworm larvae to amounts of Bacillus thuringiensis subsp. aizawai, Bacillus thuringiensis subsp. kurstaki and cyantraniliprole was observed.
Bacillus thuringiensis subsp. aizawai/Bacillus thuringiensis subsp. kurstaki was applied at a concentration of 2.6 ppm (2.6 μg/ml). Cyantraniliprole was applied at a concentration of 10.0 ppm (10.0 μg/ml). The Bacillus thuringiensis subsp. aizawai/Bacillus thuringiensis kurstaki/cyantraniliprole mixture was applied at a concentration of 2.6 ppm Bacillus thuringiensis subsp. kurstaki/Bacillus thuringiensis subsp. aizawai and 10.0 ppm cyantraniliprole.

CNC(=O)c1cc(C#N)cc(C)c1NC(=O)c1cc(Br)nn1-c1ncccc1Cl [Cyantraniliprole, 3-Bromo-1-(3-chloro-2-pyridinyl)-N-[4-cyano-2-methyl-6-(methylcarbamoyl)phenyl]-1H-pyrazole-5-carboxamide]
Emax at 0.12 ppm (diamondback moth larvae; 24 h after treatment): 29% | Emax at 0.12 ppm (diamondback moth larvae; 48 h after treatment): 52% | Emax at 1 ppm (beet armyworm larvae; 24 h after treatment): 20% | Emax at 1 ppm (beet armyworm larvae; 48 h after treatment): 35% | Emax at 0.5 ppm (cabbage looper larvae; 24 h after treatment): 18% | Emax at 0.5 ppm (cabbage looper larvae; 48 h after treatment): 40% | Emax at 1 ppm (sugarcane borer larvae; 24 h after treatment): 24% | Emax at 1 ppm (sugarcane borer larvae; 48 h after treatment): 35% | Emax at 0.1 ppm ([1]; 24 h after treatment): 15% | Emax at 0.1 ppm ([1]; 48 h after treatment): 32% | Emax at 1 ppm (soybean looper larvae; 24 h after treatment): 12% | Emax at 1 ppm (soybean looper larvae; 48 h after treatment): 41% | Emax at 10 ppm (corn earworm larvae; 24 h after treatment): 44% | Emax at 10 ppm (corn earworm larvae; 48 h after treatment): 60%
